The record followed here is ChEMBL document CHEMBL1157539, “Thousands of chemical starting points for antimalarial lead identification” (Nature, 2010).

This experiment has as its system Plasmodium falciparum. Briefly: GSK_TCMDC: Inhibition of Plasmodium falciparum 3D7 in whole erythrocytes, using parasite LDH activity as an index of growth. The experiment is classed as functional, organism-based. Conditions: Plasmodium falciparum, 3D7.
As to `CCN(CC)CCN(Cc1ccc(-c2ccc(C(F)(F)F)cc2)cc1)C(=O)Cn1c(CCc2ccc(F)c(F)c2F)nc(=O)c2ccccc21`, the XC50 came to 0.795 µM.
Next, `CCNC(C)(C)CN(Cc1ccc(-c2ccc(C(F)(F)F)cc2)cc1)C(=O)Cn1c(CCc2cccc(F)c2F)nc(=O)c2ccccc21`: 0.813 µM.
`COc1c(C2CCN(CCCCNC(=O)c3cc(-c4ccc(C#N)cc4)n[nH]3)CC2)ccc2c1CCCC2`: the XC50 came to 1.16 µM.
`CCC(C)c1ccc(O)c(NC(=O)c2cncc(Br)c2)c1` (configuration not stated) showed an XC50 of 0.804 µM.
`CCOc1ccc(N(CC)S(=O)(=O)c2cc(Br)cc3c2N(C(=O)C2CC2)CC3)cc1` came in with an XC50 of 0.134 µM.
`Cc1cc(-c2ccc(CNCc3ccsc3)cc2)ccc1S(=O)(=O)NCCN1CCCC1` registered an XC50 of 0.725 µM.
`CN(C)CCN(C)Cc1nc(-c2ccc3c(Nc4ccc(Oc5ccccc5)cc4)ccnc3c2)cs1` returned an XC50 of 0.212 µM.
Compound `Cc1ccc(NC(=O)Nc2ccc(Cl)cc2)cc1-c1ccc(C(=O)Nc2ccncc2)cc1` returned an XC50 of 0.534 µM.
In turn, `Cc1ccc(NC(=O)c2ccc3ncccc3c2)cc1OC1CCN(Cc2ccc(F)cc2)C1` (configuration not stated) returned an XC50 of 1.36 µM.
Consider `CN1CCN(CCNc2c3ccccc3nc3c2ccc2ccccc23)CC1`, for which the XC50 worked out at 0.606 µM.
`CC(C)NCc1ccc(-c2cccc(-c3nc4cc(F)ccc4[nH]3)c2)cc1` came in with an XC50 of 0.405 µM.
`CCOc1ccc(NC(C)=O)c(O)c1` returned an XC50 of 0.843 µM.
Turning to `Cc1ccc2c(-c3ccc([N+](=O)[O-])o3)cc(C)nc2c1`, the XC50 turned out to be 0.0437 µM.
With `Cc1ccc2[nH]c(C)c(Br)c(=O)c2c1`, the XC50 came to 0.812 µM.
`CC(C)CCN1CCCN(Cc2cccc(NC(=O)c3ccc(Cl)c(Cl)c3)c2)CC1` yielded an XC50 of 1.02 µM.
`CC(Cc1ccc(SC(C)(C)C)cc1)NCC(O)c1cccc(Cl)c1` (configuration not stated) showed an XC50 of 0.317 µM.
Consider `O=[N+]([O-])c1ccc2c(-c3ccccc3)c(-c3ccccc3)n(O)c2c1`, for which the XC50 is 0.989 µM.
Next, `Oc1ccc2[nH]c(-c3ccc(F)cc3F)nc2c1CN1CCC(O)(c2ccccc2)CC1`: 0.839 µM; `O=C(/C=C/c1ccc(Cl)c(Cl)c1)NCCCCCN1CCC(NC(=O)c2ccc3ccccc3c2)CC1`: 1.02 µM; `CCc1cccc(NC(=O)c2ccc(CN3CCCN(CC4CCCCC4)CC3)cc2)c1`: 0.402 µM.
Next, `O=C(Cc1ccc(NC(=O)c2ccc(O)c(-c3cccc([N+](=O)[O-])c3)c2)cc1)NCCN1CCCCC1`: 0.895 µM.
`COc1cc(COc2c(C)nc(N)nc2N)cc(OC)c1OC` returned an XC50 of 0.332 µM.
In turn, `COc1cc(CCON2C(N)=NC(N)=NC2(C)C)cc(OC)c1OC` registered an XC50 of 0.0493 µM.
`Cc1ccc2nc(N/C(N)=N/C(=O)NC3CCCCC3)nc(C)c2c1`: the XC50 was 0.624 µM.
For the compound `CNC(=O)NC1=NC(C)(C)N(OCCCOc2cc(Cl)c(Cl)cc2Cl)C(N)=N1`, the XC50 is 0.935 µM.
Consider `Cc1cc(C(F)(F)F)n2nc(C(=O)N(Cc3cncn3Cc3ccccc3F)CC3CC3)cc2n1`, for which the XC50 stood at 0.956 µM.
Under `COc1ccccc1Nc1nc(C)cc(NCc2ccc(-n3ccnc3)cc2)n1` stands 1.05 µM; under `CCN(c1ccccc1)S(=O)(=O)c1ccc(NC(=O)c2cc(-c3cc(C)ccc3O)n[nH]2)cc1`, 0.767 µM; under `NC1CCCN(Cc2cccc(-c3ccc(-c4nc5ccccc5[nH]4)cc3)c2)C1` (configuration not stated), 0.722 µM.
For `CC(C)(C)c1ccc2oc(=O)n(C3CCN(C(=O)c4ccc([N+](=O)[O-])o4)CC3)c2c1`, the XC50 worked out at 0.816 µM.
On to `FC(F)(F)c1ccc2[nH]c(-c3ccc(-c4ccc(CNCc5ccccc5)cc4)cc3)nc2c1`, for which the XC50 stood at 0.143 µM.
The compound `Cc1[nH]c(-c2ccc(F)cc2)cc1C(=O)NC1CCN(Cc2ccccc2)CC1` came in with an XC50 of 1.13 µM.
The compound `CCCn1c(Sc2ccc(C#N)c([N+](=O)[O-])c2)nnc1-c1cc(OC)cc(OC)c1` returned an XC50 of 0.718 µM.
Consider `COc1cc2nc(N3CCC(C(N)=O)CC3)nc(NCc3ccccc3)c2cc1OC`, for which the XC50 was determined as 0.887 µM.
For `COc1cc2nc(Nc3ccc(C)cc3)nc(Nc3ccc(C)cc3)c2cc1OC`, the XC50 was 0.139 µM.
Turning to `CCc1ccc(CN2CCC(CN(c3ccc(N4CCOCC4)c(F)c3)S(=O)(=O)c3ccc(C(C)(C)CC)cc3)CC2)cc1`, the XC50 amounted to 0.706 µM.
As to `CCCCCCNc1cc(C)nc(NC(=N)Nc2cccc(C(F)(F)F)c2)n1`, the XC50 was 0.739 µM.
Under `CC(=O)Nc1nc(C(=O)Nc2ccc(-c3ccc(-c4nc5cccc(C)c5[nH]4)cc3)cc2)cs1` stands 0.182 µM.
On to `O=C(/C=C/c1ccc(I)cc1)NCCCCCN1CCC(c2c[nH]c3ccc(O)cc23)CC1`, for which the XC50 was determined as 0.773 µM.
The compound `N=C(N)NN=Cc1c2ccc(Cl)cc2c(Cl)c2ccc(Cl)cc12` displayed an XC50 of 0.958 µM.
With `COc1ccc2nc(C)cc(NCc3cccc4ccccc34)c2c1`, the XC50 amounted to 0.217 µM.
As for `C[C@H](Cc1ccc(OCCCCCCOc2ccccc2)cc1)NC[C@H](O)c1cccc(Cl)c1`, the XC50 came out at 0.0704 µM.
Next, `CC(C)c1ccc(NC(=O)N[C@H]2CCN(CCCCCNC(=O)/C=C/c3ccc(Cl)c(Cl)c3)C2)cc1`: 0.71 µM; `CC(C)c1ccc(CN2CCC(NC(=O)c3ccc(-c4cccc(Cl)c4)s3)CC2)cc1`: 1.43 µM.
The compound `Cn1nc(-c2ccc(S(=O)(=O)N3CCC(CN4CCC(c5c[nH]c6ccccc56)CC4)CC3)s2)cc1C(F)(F)F` came in with an XC50 of 1.09 µM.
In the case of `CC(C)c1cn2c3c(cc(C(=O)N[C@@H](Cc4ccccc4)[C@H](O)CNC4CCOCC4)cc13)N(C)S(=O)(=O)CC2`, the XC50 amounted to 0.0545 µM.
With `CCC(=O)Nc1cc(=O)[nH]c2nc(-c3ccc(Cl)cc3)nn12`, the XC50 was 0.57 µM.
The compound `O=C(Nc1ccc(Oc2ccc(OC(F)(F)F)cc2)cc1)c1ccco1` yielded an XC50 of 1.13 µM.
Next, `COc1cccc(C(=O)Nc2nc3c(s2)CCN(Cc2ccccc2N2CCNCC2)CC3)c1`: 0.888 µM; `O=C(Nc1ccc2nccc(N3CCN4CCC[C@H]4C3)c2c1)c1ccc(Cl)c(Cl)c1`: 0.34 µM; `COc1ccc(C(=O)N2CCC3(CC2)C(=O)N(CC(=O)NCC2CCCCC2)CN3c2ccccc2)cc1`: 0.273 µM.
`CN1CCN(Cc2cccc(-c3ccc4c(Nc5cc(O)c(Cl)cc5F)ccnc4c3)c2)CC1` had an XC50 of 0.77 µM.
Turning to `N#CC1(CCCNCCc2ccc(O)cc2)CCCc2c(O)cccc21` (configuration not stated), the XC50 is 0.763 µM.
`CC(C)N1CCN(c2ccc(OCCCCN3CCN(c4cccc(Cl)c4Cl)CC3)cc2Cl)CC1` yielded an XC50 of 1.04 µM.
Next, `NC1CCN(Cc2ccc(-c3ccc(-c4nc5cc(F)ccc5[nH]4)cc3)cc2)C1` (configuration not stated): 0.184 µM; `CCCC(CNCc1cccc(OCC)c1)CNc1cc(=O)c2ccccc2[nH]1` (configuration not stated): 0.855 µM; `O=C(/C=C/c1ccc(Cl)c(Cl)c1)NCCCCCN1CCC(NC(=O)Nc2cc(Cl)cc(Cl)c2)CC1`: 0.722 µM.
Compound `Nc1cccc(CNCc2cccc(-c3cccc(-c4nc5cc(C(F)(F)F)ccc5[nH]4)c3)c2)c1` registered an XC50 of 0.51 µM.
Compound `CC(C)(C)CC(C)(C)c1ccc(O)c(C(=O)Nc2cccc([N+](=O)[O-])c2)c1` came in with an XC50 of 0.589 µM.
The compound `CCN(CC)CCNc1ccnc2[nH]c3ccc(Cl)cc3c12` registered an XC50 of 0.245 µM.
Compound `O=C(NCCCCCN1CCC(c2c[nH]c3ccccc23)CC1)Nc1cccc(Cl)c1` returned an XC50 of 1.02 µM.
`Cc1ccc(-c2ccc(Cl)cc2Oc2cnc(N)nc2N)o1` showed an XC50 of 1.08 µM.
Regarding `CCc1cc(OC)ccc1C1CCN(CCCCNC(=O)c2ccc(NC(=O)c3ccc(Cl)cc3)cc2)CC1`, the XC50 came out at 1.07 µM.
In turn, `Cc1ccc(OC2CCN(c3ccc(C(=O)NC4CC4)cn3)CC2)cc1` showed an XC50 of 1.3 µM.
`CCOC(=O)c1[nH]c2cc(Cl)cc(Cl)c2c1/C=C/C(=O)Nc1ccc(-c2cnc(NC(C)=O)[nH]2)cc1` displayed an XC50 of 1.02 µM.
Next, `CCNc1cc(C(=O)N[C@@H](Cc2ccccc2)[C@H](O)CNCC(C)C)cc(N2CCCC2=O)c1`: 0.485 µM; `CCc1c[nH]c2c(N3CCCCC3=O)cc(C(=O)N[C@@H](Cc3ccccc3)[C@H](O)CNCc3cccc(OC)c3)cc12`: 0.169 µM.
`CC[C@@]1(O)C(=O)OCc2c1cc1n(c2=O)Cc2c-1nc1cc3c(cc1c2CN1CCOCC1)OCO3` returned an XC50 of 0.965 µM.
Next, `Oc1c(C(Nc2ccccn2)c2ccco2)cc(Cl)c2cccnc12` (configuration not stated): 1.01 µM.
Take `COc1ccc(-n2nc(C(=O)NCCC3=CCCCC3)c3ccccc3c2=O)cc1`: the XC50 was determined as 0.682 µM.
`CN(C)CCC(O)C=C(c1ccc(Cl)cc1)c1ccc(Cl)cc1` (configuration not stated) came in with an XC50 of 0.948 µM.
The compound `CCC[C@@H]([C@@H](CC1CCCCC1)C(=O)N[C@H](C(=O)Nc1nccs1)C(C)(C)SCCNC(=O)OCC)N(O)C=O` displayed an XC50 of 0.0834 µM.
Regarding `Cc1cc(=NN=Cc2ccc(F)cc2)c2ccc(F)cc2[nH]1`, the XC50 is 0.95 µM.
For `CCN(CC)CCN(Cc1ccc(-c2ccc(C(F)(F)F)cc2)cc1)C(=O)Cn1nc(-c2ccc(C(F)(F)F)cc2)ccc1=O`, the XC50 amounted to 0.797 µM.
Under `CCCc1cc(OC)c(CC2c3cccc(O)c3CCN2C)cc1OC` (configuration not stated) stands 0.305 µM; under `Cc1cc(N[C@@H](CC(C)C)C(=O)Nc2ccccc2)nc(NCCc2ccccc2)n1`, 0.888 µM; under `CCCCc1ccc(-c2c(N)nc(N)nc2CC)cc1`, 0.954 µM.
On to `CC(C)Sc1nc2c(c(=O)n1Cc1ccco1)C1(CCCC1)Cc1ccccc1-2`, for which the XC50 was 1.63 µM.
In the case of `Cc1ccc2nc(C)n(C3CCN(C(=O)Cc4ccccc4C)CC3)c2c1`, the XC50 worked out at 0.243 µM.
For `Cc1ccc2nc(C)cc(NC(=O)Nc3ccc(N(C)C)cc3)c2c1`, the XC50 was 0.541 µM.
On to `Cc1ccc2c(=NN=Cc3cccc(F)c3)cc(C)[nH]c2c1`, for which the XC50 was determined as 0.857 µM.
`CN(CCN)Cc1ccc(-c2ccc(-c3nc4cc(C(F)(F)F)ccc4[nH]3)s2)cc1` registered an XC50 of 0.607 µM.
Compound `COc1ccccc1C1CC(c2ccccc2)=NN1C(=O)c1ccco1` (configuration not stated) showed an XC50 of 0.397 µM.
As to `O=C(Nc1ccc(OC2CCN(Cc3ccco3)C2)c(Cl)c1)c1ccc2ncccc2c1` (configuration not stated), the XC50 was determined as 1.08 µM.
Under `CC[C@H]1CN2CC[C@H]1C[C@H]2[C@@H](O)c1cc(OCCCN(C)C)nc2ccc(OC)cc12` stands 0.132 µM; under `CC(CON1C(N)=NC(N)=NC1(C)C)c1ccc(Cl)cc1Cl` (configuration not stated), 0.0032 µM.
As to `Cc1cccc(NC(=O)c2cnc(N3CCN(c4ccncc4)CC3)c(Cl)c2)c1`, the XC50 was determined as 0.678 µM.
